# Source: patent US9655889B2, “Inhibitors of human immunodeficiency virus replication” (priority 2013, dated 2017)
# Tested on: recombinant NL-Rluc virus
# Assay: Inhibition of HIV replication (NL-RLuc virus luciferase assay in MT-2 cells)
# Type: cell-based
# Conditions: Human immunodeficiency virus 1, MT2, 120 h
row,Compound,EC50 [nM]
1,"Cc1cc(CNC(=O)c2cn3c(N4CCC(C)(C)CC4)c([C@H](OC(C)(C)C)C(=O)O)c(C)cc3n2)ccc1F [Example 1, (S)-2-(tert-Butoxy)-2-(5-(4,4-dimethylpiperidin-1-yl)-2-((4-fluoro-3-methylbenzyl)carbamoyl)-7-methylimidazo[1,2-a]pyridin-6-yl)acetic acid]",8
2,"Cc1cc2nc(-c3ncc(Cc4ccc(F)cc4)o3)cn2c(N2CCC(C)(C)CC2)c1[C@H](OC(C)(C)C)C(=O)O [Example 2, (S)-2-(tert-Butoxy)-2-(5-(4,4-dimethylpiperidin-1-yl)-2-(5-(4-fluorobenzyl)oxazol-2-yl)-7-methylimidazo[1,2-a]pyridin-6-yl)acetic acid]",2
3,"Cc1cc2nc(-c3ncc(Cc4ccc(F)cc4)s3)cn2c(N2CCC(C)(C)CC2)c1[C@H](OC(C)(C)C)C(=O)O [Example 3, (S)-2-(tert-Butoxy)-2-(5-(4,4-dimethylpiperidin-1-yl)-2-(5-(4-fluorobenzyl)thiazol-2-yl)-7-methylimidazo[1,2-a]pyridin-6-yl)acetic acid]",21
4,"Cc1cc2nc(-c3nc(Cc4ccccc4)no3)cn2c(N2CCC(C)(C)CC2)c1[C@H](OC(C)(C)C)C(=O)O [Example 4, (S)-2-(2-(3-Benzyl-1,2,4-oxadiazol-5-yl)-5-(4,4-dimethylpiperidin-1yl)-7-methylimidazo[1,2-a]pyridin-6-yl)-2-(tert-butoxy)acetic acid]",3
5,"Cc1cc2nc(-c3nnc(Cc4ccccc4)o3)cn2c(N2CCC(C)(C)CC2)c1[C@H](OC(C)(C)C)C(=O)O [Example 5, (S)-2-(2-(5-Benzyl-1,3,4-oxadiazol-2-yl)-5-(4,4-dimethylpiperidin-1-yl)-7-methylimidazo[1,2-a]pyridin-6-yl)-2-(tert-butoxy)acetic acid]",8
6,"Cc1cc2nc(-c3nc(Cl)c(Cc4ccc(F)cc4)[nH]3)cn2c(N2CCC(C)(C)CC2)c1[C@H](OC(C)(C)C)C(=O)O [Example 6, (S)-2-(tert-Butoxy)-2-(2-(4-chloro-5-(4-fluorobenzyl)-1H-imidazol-2-yl)-5-(4,4-dimethylpiperidin-1-yl)-7-methylimidazo[1,2-a]pyridin-6)acetic acid]",13
7,"Cc1cc2nc(-c3ncc(Cc4ccc(F)cc4)[nH]3)cn2c(N2CCC(C)(C)CC2)c1[C@H](OC(C)(C)C)C(=O)O [Example 7, (S)-2-(tert-Butoxy)-2-(5-(4,4-dimethylpiperidin-1-yl)-2-(5-(4-fluorobenzyl)-1H-imidazol-2-yl)-7-methylimidazo[1,2-a]pyridin-6-yl)acetic acid]",34
8,"C=CCOC1(C)CCN(c2c([C@H](OC(C)(C)C)C(=O)O)c(C)cc3nc(NS(=O)(=O)Cc4ccc(F)cc4)cn23)CC1 [Example 8, (S)-2-(5-(4-(Allyloxy)-4-methylpiperidin-1-yl)-2((4-fluorophenyl)methylsulfonamido)-7-methylimidazo[1,2-a]pyridin-6-yl)-2-(tert-butoxy)acetic acid]",3300
9,"C=CCOC1(C)CCN(c2c([C@H](OC(C)(C)C)C(=O)O)c(C)cc3nc(NS(=O)(=O)c4ccc(F)cc4)cn23)CC1 [Example 9, (S)-2-(5-(4-(Allyloxy)-4-methylpiperidin-1-yl)-2-(4-fluorophenylsulfonamido)-7-methylimidazo[1,2-a]pyridin-6-yl)-2-(tert-butoxy)acetic acid]",6030
